Measurements published in ChEMBL document CHEMBL5550186, “Exploring the Potential of Cyclic Peptidyl Antitumor Agents Derived from Natural Macrocyclic Peptide Phakellistatin 13” (J Med Chem, 2024).
Active and inactive are the calls of the source. The rule behind the calls is not given here.

Legend:
HepG2 [1] = test: Induction of apoptosis in human HepG2 cells assessed as viable cells at 20 uM incubated for 48 hrs by annexin V-FITC/PI staining based flow cytometry analysis (reference value: 99.3%); type: functional; conditions: read-out: Activity
[2] = Effect on MAML3 expression level in human HepG2 cells assessed as fold change by KEGG enrichment analysis; type: functional
HepG2 [3] = test: Induction of morphological changes in human HepG2 cells assessed as appearance of luminous morphology at 40 uM measured after 12 to 24 hrs by fluorescence inverted microscopic analysis; type: functional, cell-based; conditions: time 12-24 hrs
HepG2 [4] = test: Induction of apoptosis in human HepG2 cells assessed as early apoptotic cells at 10 uM incubated for 48 hrs by annexin V-FITC/PI staining based flow cytometry analysis (reference value: 0.50%); type: functional
[5] = Upregulation of FGF21 expression level in human HepG2 cells assessed as fold change by KEGG enrichment analysis; type: functional
HepG2 [6] = test: Induction of morphological changes in human HepG2 cells assessed as deterioration of cell membrane integrity at 40 uM measured after 12 to 24 hrs by fluorescence inverted microscopic analysis; type: functional, cell-based; conditions: time 12-24 hrs
HepG2 [7] = test: Induction of morphological changes in human HepG2 cells assessed as appearance of round morphology at 40 uM measured after 12 to 24 hrs by fluorescence inverted microscopic analysis; type: functional, cell-based; conditions: time 12-24 hrs
HepG2 [8] = test: Induction of apoptosis in human HepG2 cells assessed as late apoptotic cells at 10 uM incubated for 48 hrs by annexin V-FITC/PI staining based flow cytometry analysis (reference value: 0.16%); type: functional
HepG2 [9] = test: Induction of cell cycle arrest in human HepG2 cells assessed as accumulation of cells at G2/M phase at 10 uM incubated for 48 hrs by PI staining based flow cytometry analysis (reference value: 6.38%); type: functional
[10] = Toxicity in Balb/c mouse assessed as effect on lung at 6 mg/kg, iv measured after 14 days by H and E staining based analysis; type: organism-based; conditions: in vivo, 336 h, time 14 day
[11] = Toxicity in Balb/c mouse assessed as effect on body weight at 6 mg/kg, iv measured every two days for 14 days; type: organism-based; conditions: in vivo, 336 h, time 14 day
HeLa = test: Antiproliferative activity against human HeLa cells incubated for 48 hrs by MTT assay; type: functional, cell-based
HepG2 [12] = test: Induction of cell cycle arrest in human HepG2 cells assessed as accumulation of cells at >G2/M phase at 20 uM incubated for 48 hrs by PI staining based flow cytometry analysis (reference value: 28.0%); type: functional
HepG2 [13] = test: Induction of apoptosis in human HepG2 cells assessed as late apoptotic cells at 20 uM incubated for 48 hrs by annexin V-FITC/PI staining based flow cytometry analysis (reference value: 0.16%); type: functional
HepG2 [14] = test: Induction of cell cycle arrest in human HepG2 cells assessed as accumulation of cells at >G2/M phase at 10 uM incubated for 24 hrs by PI staining based flow cytometry analysis (reference value: 28.0%); type: functional
[15] = Toxicity in Balb/c mouse assessed as effect on tumor at 6 mg/kg, iv measured after 14 days by H and E staining based analysis; type: organism-based; conditions: in vivo, 336 h, time 14 day
HepG2 [16] = test: Induction of cell cycle arrest in human HepG2 cells assessed as accumulation of cells at 2N phase at 20 uM incubated for 48 hrs by PI staining based flow cytometry analysis (reference value: 26.0%); type: functional
[17] = Upregulation of SESN2 expression level in human HepG2 cells assessed as fold change by KEGG enrichment analysis; type: functional
[18] = Upregulation of GADD45A expression level in human HepG2 cells assessed as fold change by KEGG enrichment analysis; type: functional
Cell membrane = test: Induction of mitochondrial membrane potential loss in human HepG2 cells assessed as decrease in fluorescence at 20 uM measured after 48 hrs by Rhodamine 123 staining based flow cytometry (reference value: 66.8%); type: cell membranes; parameters: scale not given: the % may be the effect or the level left
HepG2 [19] = test: Upregulation of cytochrome c level in human HepG2 cells at 5 to 20 uM measured after 48 hrs by Western blot analysis; type: functional, cell-based; conditions: dose 5-20 µM
HepG2 [20] = test: Induction of cell cycle arrest in human HepG2 cells assessed as accumulation of cells at G2/M phase at 10 uM incubated for 24 hrs by PI staining based flow cytometry analysis (reference value: 6.38%); type: functional

IC50 (HeLa): 16.9 µM
Activity (Cell membrane): 18.4%
Structure (SMILES): CC(C)C[C@H]1NC(=O)[C@H]([C@@H](C)OCc2ccccc2)NC(=O)[C@H]2CCCN2C(=O)CN2C(=O)c3ccccc3[C@@]2(O)CN(Cc2ccccc2)C(=O)[C@H](Cc2ccccc2)NC(=O)[C@H]2CCCN2C(=O)[C@H](Cc2c[nH]c3ccccc23)NC1=O
viability at 20 µM (HepG2 [1]): 52%
fold change (FC) [2]: -1.198
Activity (HepG2 [3]): Active
Activity (HepG2 [4]): 27.3%
fold change (FC) [5]: 9.022
Activity (HepG2 [6]): Active
Activity (HepG2 [7]): Active
Activity (HepG2 [8]): 4.57%
Activity (HepG2 [9]): 23%
Activity [10]: Non-Toxic
Activity [11]: Non-Toxic
Activity (HepG2 [12]): 1.12%
Activity (HepG2 [13]): 6.88%
Activity (HepG2 [14]): 13.5%
Activity [15]: Non-Toxic
Activity (HepG2 [16]): 21.9%
fold change (FC) [17]: 2.86
fold change (FC) [18]: 1.519
Activity (HepG2 [19]): Active
Activity (HepG2 [20]): 13%
